According to patent US20220281848A1, “PYRAZOLE-SUBSTITUTED PYRROLIDINONES AS HERBICIDES” (FMC Corporation, priority 2019, published 2022):

Key:
Format in all cases: in vivo
[1] = system: barnyardgrass (Echinochloa crus-galli, ECHCG); assay: Test A pre-emergence, barnyardgrass; conditions: after 13 d
Summary of the method: (§1)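 Damage rated 0–100 (100 = total) 13 d after spraying. Application was one day post-sowing at 15.625, 62.5 or 250 g/ha, formulated in 50:50 acetone/water plus 0.5% Tween 20. Pots held in glasshouse at 24/16 °C day/night, 14 h light, 65% humidity, watered twice daily.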

[2] = system: wheat; assay: Test D post-emergence, wheat seed treated with a herbicide safener; conditions: "Cereals" Postemergent
Description: (§2) A formulation containing 50 g/L of the test chemical was prepared by dissolving the active ingredient in a mixture of organic solvents and emulsifier, details of which are provided in the table. This formulation was then mixed with a small, variable amount of acetone to aid dissolution, before addition of a 0.2% v/v aqueous solution of an adjuvant, as the aqueous diluent, to form an aqueous spray solution which contains a predetermined concentration of the active ingredient.
(§3) This aqueous spray solution was then sprayed onto plants including maize and wheat that had been seed treated with a herbicide safener, after one day's cultivation (for pre-emergence) or after about 12 days' cultivation (for post-emergence). The plants were grown from seeds sown in standard soil, placed in a glasshouse under controlled conditions (at 24/18° C. or 20/16° C., day/night; 16 h light; 65% humidity). After spray application the plants were then grown in a glasshouse under the same conditions and watered twice daily. After 15 d for post-emergence and 20 DAA for pre-emergence the test was evaluated (100=total damage to plant; 0=no damage to plant).

[3] = system: ivy-leaved morning glory (Ipomoea hederacea, IPOHE); assay: Test A post-emergence, ivy-leaved morning glory; conditions: after 13 d
Summary of the method: (§4)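 Visual damage rating (0 no damage to 100 total damage) was made 13 d after spraying. The spray was 15.625, 62.5 or 250 g/ha in 50:50 acetone/water with 0.5% Tween 20, applied to 8-day-old glasshouse plants kept at 24/16° C, 14 h light and 65% humidity.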

[4] = system: ivy-leaved morning glory (Ipomoea hederacea, IPOHE); assay: Test A pre-emergence, ivy-leaved morning glory; conditions: after 13 d
Summary of the method: as §1

[5] = system: barnyardgrass (Echinochloa crus-galli, ECHCG); assay: Test A post-emergence, barnyardgrass; conditions: after 13 d
Summary of the method: as §4

[6] = system: maize; assay: Test D post-emergence, maize seed treated with a herbicide safener
Description: as §2, §3

[7] = system: corn (Zea mays, ZEAMX); assay: Test A pre-emergence, corn; conditions: after 13 d
Summary of the method: as §1

[8] = system: waterhemp (common waterhemp, Amaranthus rudis); assay: Test C preemergence, waterhemp; conditions: 19 to 21 days
Text: (§5) Seeds of plant species selected from corn (Zea mays), soybean (Glycine max), velvetleaf (Abutilon theophrasti), palmer pigweed (Amaranthus palmeri), waterhemp (common waterhemp, Amaranthus rudis), surinam grass (Brachiaria decumbens), large (Lg) crabgrass (Digitaria sanguinalis), fall panicum (Panicum dichotomiflorum), giant foxtail (Setaria faberi), ragweed (common ragweed, Ambrosia elatior), barnyardgrass (Echinochloa crus-galli), E. Black Nightshade (Solanum ptycanthum), and horseweed (Conyza canadensis), were planted into a silt loam soil and treated preemergence with test chemicals formulated in a non-phytotoxic solvent mixture which included a surfactant.
(§6) Treated plants and controls were maintained in a greenhouse for 19 to 21 days, after which time all species were compared to controls and visually evaluated. Plant response ratings, summarized in Table C, are based on a scale of 0 to 100 where 0 is no effect and 100 is complete control.

[9] = system: ragweed (common ragweed, Ambrosia elatior); assay: Test C preemergence, ragweed; conditions: 19 to 21 days
Text: as §5, §6

[10] = system: Italian ryegrass (Lolium multiflorum); assay: Test B preemergence, Italian ryegrass; conditions: 19 to 21 days
Text: Seeds of plant species selected from blackgrass (Alopecurus myosuroides), Italian ryegrass (Lolium multiflorum), wheat, winter (winter wheat, Triticum aestivum), corn (Zea mays), large (Lg) crabgrass (Digitaria sanguinalis), giant foxtail (Setaria faberi), johnsongrass (Sorghum halepense), ragweed (common ragweed, Ambrosia elatior), soybean (Glycine max), barnyardgrass (Echinochloa crus-galli), waterhemp (common waterhemp, Amaranthus rudis), palmer pigweed (Amaranthus palmeri), and surinam grass (Brachiaria decumbens), were planted into a silt loam soil and treated preemergence with test chemicals formulated in a non-phytotoxic solvent mixture which included a surfactant.
Treated plants and controls were maintained in a greenhouse for 19 to 21 days, after which time all species were compared to controls and visually evaluated. Plant response ratings, summarized in Table B, are based on a scale of 0 to 100 where 0 is no effect and 100 is complete control.

[11] = Rates 130, evaluated after 15 d
[12] = Rates 250, evaluated after 15 d
[13] = Rates 500, evaluated after 15 d

Row | Structure (SMILES) | damage to plant (100=total damage; 0=no damage) ECHCG ([1]; Pre-Emergence at 15.625 g/ha) | damage to plant (100=total damage; 0=no damage) ECHCG ([1]; Pre-Emergence at 62.5 g/ha) | damage to plant (100=total damage; 0=no damage) ECHCG ([1]; Pre-Emergence at 250 g/ha) | TRZAW damage rating (100=total damage to plant; 0=no damage to plant) [2, 11] | TRZAW damage rating (100=total damage to plant; 0=no damage to plant) [2, 12] | TRZAW damage rating (100=total damage to plant; 0=no damage to plant) [2, 13] | damage to plant (100=total damage; 0=no damage) IPOHE ([3]; Post-Emergence at 15.625 g/ha) | damage to plant (100=total damage; 0=no damage) IPOHE ([3]; Post-Emergence at 62.5 g/ha) | damage to plant (100=total damage; 0=no damage) IPOHE ([3]; Post-Emergence at 250 g/ha) | damage to plant (100=total damage; 0=no damage) IPOHE ([4]; Pre-Emergence at 15.625 g/ha) | damage to plant (100=total damage; 0=no damage) IPOHE ([4]; Pre-Emergence at 62.5 g/ha) | damage to plant (100=total damage; 0=no damage) IPOHE ([4]; Pre-Emergence at 250 g/ha) | damage to plant (100=total damage; 0=no damage) ECHCG ([5]; Post-Emergence at 15.625 g/ha) | damage to plant (100=total damage; 0=no damage) ECHCG ([5]; Post-Emergence at 62.5 g/ha) | damage to plant (100=total damage; 0=no damage) ECHCG ([5]; Post-Emergence at 250 g/ha) | damage to plant (100=total damage to plant; 0=no damage to plant), ZEAMX ([6]; rate 130, evaluated after 15 d) | damage to plant (100=total damage to plant; 0=no damage to plant), ZEAMX ([6]; rate 250, evaluated after 15 d) | damage to plant (100=total damage to plant; 0=no damage to plant), ZEAMX ([6]; rate 500, evaluated after 15 d) | damage to plant (100=total damage; 0=no damage) ZEAMX ([7]; Pre-Emergence at 15.625 g/ha) | damage to plant (100=total damage; 0=no damage) ZEAMX ([7]; Pre-Emergence at 62.5 g/ha) | further results
1 | CN1C[C@H](c2nn(C)c3c(F)cccc23)[C@@H](C(=O)Nc2cccc(F)c2F)C1=O [Compound 2] | 90 | 90 | 90 | 20 | 20 | 60 | 0 | 0 | 0 | 0 | 0 | 0 | 0 | 90 | 90 | 0 | 0 | 20 | 0 | 0 | damage to plant (100=total damage; 0=no damage) ZEAMX ([7]; Pre-Emergence at 250 g/ha): 10
2 | CN1CC(c2cc(C(F)(F)F)n(C)n2)C(C(=O)Nc2cccc(F)c2F)C1=O (racemic) [Compound 3] | 100 | 100 | 100 | 0 | 0 | 50 | 0 | 0 | 0 | 0 | 0 | 30 | 90 | 90 | 90 | 0 | 0 | 10 | 0 | 60 | damage to plant (100=total damage; 0=no damage) ZEAMX ([7]; Pre-Emergence at 250 g/ha): 90
3 | CN1C[C@H](c2cc(C(F)(F)F)n(C)n2)[C@@H](C(=O)Nc2cccc(F)c2F)C1=O [Compound 13, (3S,4R)—N-(2,3-difluorophenyl)-1-methyl-4-[1-methyl-5-(trifluoromethyl)-1H-pyrazol-3-yl]-2-oxo-3-pyrrolidinecarboxamide] |  |  |  |  |  |  |  |  |  |  |  |  |  |  |  |  |  |  |  |  | Plant response rating (0 no effect, 100 complete control) Waterhemp ([8]; 4 g ai/ha Preemergence): 0; Plant response rating (0 no effect, 100 complete control) Waterhemp ([8]; 8 g ai/ha Preemergence): 0; Plant response rating (0 no effect, 100 complete control) Waterhemp ([8]; 16 g ai/ha Preemergence): 0; Plant response rating (0 no effect, 100 complete control) Waterhemp ([8]; 31 g ai/ha Preemergence): 0; Plant response rating (0 no effect, 100 complete control) Waterhemp ([8]; 62 g ai/ha Preemergence): 20; Plant response rating (0 no effect, 100 complete control) Waterhemp ([8]; 125 g ai/ha Preemergence): 20; Plant response rating (0 no effect, 100 complete control) Ragweed ([9]; 4 g ai/ha Preemergence): 0; Plant response rating (0 no effect, 100 complete control) Ragweed ([9]; 8 g ai/ha Preemergence): 0; Plant response rating (0 no effect, 100 complete control) Ragweed ([9]; 16 g ai/ha Preemergence): 0; Plant response rating (0 no effect, 100 complete control) Ragweed ([9]; 31 g ai/ha Preemergence): 0; Plant response rating (0 no effect, 100 complete control) Ragweed ([9]; 62 g ai/ha Preemergence): 0; Plant response rating (0 no effect, 100 complete control) Ragweed ([9]; 125 g ai/ha Preemergence): 0; Plant response rating (0 no effect, 100 complete control) Ryegrass, Italian ([10]; 16 g ai/ha Preemergence): 0; Plant response rating (0 no effect, 100 complete control) Ryegrass, Italian ([10]; 31 g ai/ha Preemergence): 25; Plant response rating (0 no effect, 100 complete control) Ryegrass, Italian ([10]; 62 g ai/ha Preemergence): 65; Plant response rating (0 no effect, 100 complete control) Ryegrass, Italian ([10]; 125 g ai/ha Preemergence): 92
